Assays:
Type in all cases: cell-based
[1] = test system: MDA-MB-435 (melanoma); assay: MTT tumor cell growth assay; conditions: MDA-MB-435 cells, lansoprazole 1-100 μM, 48 hours
[2] = test system: 786-O (kidney cancer); assay: MTT tumor cell growth assay; conditions: 786-O cells, lansoprazole 1-100 μM, 48 hours
[3] = test system: J-gamma-1 (leukemia); assay: MTT tumor cell growth assay; conditions: J-gamma-1 cells, lansoprazole 1-100 μM, 48 hours
[4] = test system: IGROV 1 (ovarian cancer); assay: MTT tumor cell growth assay; conditions: IGROV 1 cells, lansoprazole 1-100 μM, 48 hours
[5] = test system: KU812 (leukemia); assay: MTT tumor cell growth assay; conditions: KU812 cells, lansoprazole 1-100 μM, 48 hours
[6] = test system: HL60 clone 15 (leukemia); assay: MTT tumor cell growth assay; conditions: HL60 clone 15 cells, lansoprazole 1-100 μM, 48 hours
[7] = test system: A3 (colon cancer); assay: MTT tumor cell growth assay; conditions: A3 cells, lansoprazole 1-100 μM, 48 hours
[8] = test system: RXF393 (kidney cancer); assay: MTT tumor cell growth assay; conditions: RXF393 cells, lansoprazole 1-100 μM, 48 hours
[9] = test system: NAMALWA (lymphoma); assay: MTT tumor cell growth assay; conditions: NAMALWA cells, lansoprazole 1-100 μM, 48 hours
[10] = test system: HUT78 (lymphoma); assay: MTT tumor cell growth assay; conditions: HUT78 cells, lansoprazole 1-100 μM, 48 hours
[11] = test system: SW620 (colon cancer); assay: MTT tumor cell growth assay; conditions: SW620 cells, lansoprazole 1-100 μM, 48 hours
[12] = test system: SKMEL2 (melanoma); assay: MTT tumor cell growth assay; conditions: SKMEL2 cells, lansoprazole 1-100 μM, 48 hours
[13] = MTT tumor cell growth assay; conditions: MCF7 cells, lansoprazole 1-100 μM, 48 hours
[14] = test system: A498 (kidney cancer); assay: MTT tumor cell growth assay; conditions: A498 cells, lansoprazole 1-100 μM, 48 hours
[15] = test system: H522 (lung cancer); assay: MTT tumor cell growth assay; conditions: H522 cells, lansoprazole 1-100 μM, 48 hours

Measured: tumor cell growth reduction

Cc1c(OCC(F)(F)F)ccnc1C[S+]([O-])c1nc2ccccc2[nH]1 (stereo not drawn) [lansoprazole]
significant tumor cell growth reduction: [1] | [2] | [3] | [4] | [5] | [6] | [7] | [8] | [9] | [10] | [11] | [12] | [13] | [14] | [15]

— patent US20100184807A1, “Methods to inhibit tumor cell growth by using proton pump inhibitors” (Bio-Quant, Inc., priority 2008, published 2010)
